ChEMBL document CHEMBL1201862, “PubChem BioAssay data set” (2004)
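Protocol summary: plate cells (96-well), add compound at 5 concentrations, incubate 48 h, interpolate endpoints linearly. GI50 is the concentration that inhibits growth by half.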 Active and inactive are the calls of the source. Rule as the data show it: active = GI50 up to about 1.1 µM and inactive = higher.

Legend:
Experiment in all cases: NCI anticancer screen, dose series, 48 h
MDA-MB-435 = tested on: MDA-MB-435
UACC-62 = tested on: UACC-62
EKVX = tested on: EKVX
NCI-H460 = tested on: NCI-H460
T47D = tested on: T47D
HOP-62 = tested on: HOP-62
BT-549 = tested on: BT-549
CCRF-CEM = tested on: CCRF-CEM
OVCAR-3 = tested on: OVCAR-3
PC-3 = tested on: PC-3
KM12 = tested on: KM12
MDA-MB-231 = tested on: MDA-MB-231
ACHN = tested on: ACHN
SR = tested on: SR
COLO 205 = tested on: COLO 205
MOLT-4 = tested on: MOLT-4
SK-OV-3 = tested on: SK-OV-3
U-251 = tested on: U-251
SNB-19 = tested on: SNB-19
SF-539 = tested on: SF-539

SMILES	GI50 (MDA-MB-435)	GI50 (UACC-62)	GI50 (EKVX)	GI50 (NCI-H460)	GI50 (T47D)	GI50 (HOP-62)	GI50 (BT-549)	GI50 (CCRF-CEM)	GI50 (OVCAR-3)	GI50 (PC-3)	GI50 (KM12)	GI50 (MDA-MB-231)	GI50 (ACHN)	GI50 (SR)	GI50 (COLO 205)	GI50 (MOLT-4)	GI50 (SK-OV-3)	GI50 (U-251)	GI50 (SNB-19)	GI50 (SF-539)
CC(C(=O)[O-])S(=O)(=O)O.CCc1c2cc(OC)c(OC)cc2cc2c3cc(OC)c(OC)cc3cc[n+]12	4.27 µM (inactive)	7.91 µM (inactive)	67.6 µM (inactive)	42.4 µM (inactive)	5.11 µM (inactive)	41.7 µM (inactive)	3.81 µM (inactive)	9.14 µM (inactive)	12.4 µM (inactive)	17.9 µM (inactive)	17.8 µM (inactive)	20.1 µM (inactive)	58.9 µM (inactive)	13.3 µM (inactive)	4.78 µM (inactive)	20.4 µM (inactive)	41.6 µM (inactive)	6.27 µM (inactive)	3.94 µM (inactive)	9.77 µM (inactive)
O=C(CNS(=O)(=O)Cc1ccccc1)NNc1ccccc1	6.95 µM (inactive)	1.12 µM (active)	> 69.5 µM (inactive)	25.1 µM (inactive)	> 42.3 µM (inactive)	> 100 µM (inactive)	> 100 µM (inactive)	> 100 µM (inactive)	49.4 µM (inactive)	> 100 µM (inactive)	6.1 µM (inactive)	> 100 µM (inactive)	> 100 µM (inactive)	> 100 µM (inactive)	3.23 µM (inactive)	> 100 µM (inactive)	> 100 µM (inactive)	> 100 µM (inactive)	> 100 µM (inactive)	3.05 µM (inactive)
CC1=C(C(=O)OCCO[N+](=O)[O-])C(c2ccccc2[N+](=O)[O-])C(C(=O)OC(C)C)=C(C)N1 (stereo not given)	15 µM (inactive)	14.1 µM (inactive)	18.3 µM (inactive)	15.5 µM (inactive)	13 µM (inactive)	18.2 µM (inactive)	16.5 µM (inactive)	33.2 µM (inactive)	13 µM (inactive)	8.17 µM (inactive)	13.8 µM (inactive)	15.6 µM (inactive)	13.1 µM (inactive)	44.9 µM (inactive)	15.1 µM (inactive)	40.9 µM (inactive)	21.2 µM (inactive)	16.2 µM (inactive)	18 µM (inactive)	17.7 µM (inactive)
O=C(CCCCCCCCC(=O)NN1C(=O)/C(=C\c2ccc(O)c(O)c2)SC1c1c(O)ccc2ccccc12)NN1C(=O)C(=Cc2ccc(O)c(O)c2)SC1c1c(O)ccc2ccccc12 (stereo not given)	> 27.2 µM (inactive)	4.74 µM (inactive)	7.59 µM (inactive)	4.62 µM (inactive)	11.3 µM (inactive)	2.45 µM (inactive)	> 36.9 µM (inactive)	0.828 µM (active)	2.25 µM (inactive)	10.9 µM (inactive)	23.9 µM (inactive)	> 23.8 µM (inactive)	4.8 µM (inactive)	4.42 µM (inactive)	20.4 µM (inactive)	2.48 µM (inactive)	6.28 µM (inactive)	12.5 µM (inactive)	22.6 µM (inactive)	8.45 µM (inactive)
O=[N+]([O-])c1cccc2nc3ccccc3c(NCCC[N+]3([O-])CCCCC3)c12	0.18 µM (active)	0.272 µM (active)	0.438 µM (active)	0.279 µM (active)	0.41 µM (active)	0.927 µM (active)	0.501 µM (active)	0.546 µM (active)	0.281 µM (active)	0.255 µM (active)	0.349 µM (active)	0.351 µM (active)	5.37 µM (inactive)	0.0479 µM (active)	0.143 µM (active)	0.198 µM (active)	1.02 µM (active)	0.289 µM (active)	0.638 µM (active)	0.479 µM (active)
Cc1ccc(N2C(=O)CC(=O)N(NC(=O)C(C)Oc3ccccc3C)C2=S)cc1 (stereo not given)	> 100 µM (inactive)	> 100 µM (inactive)	> 100 µM (inactive)	> 100 µM (inactive)	> 100 µM (inactive)	> 100 µM (inactive)	> 100 µM (inactive)	1.6 µM (inactive)	> 100 µM (inactive)	> 100 µM (inactive)	> 100 µM (inactive)	> 100 µM (inactive)	> 100 µM (inactive)	57.1 µM (inactive)	> 100 µM (inactive)	48 µM (inactive)	> 100 µM (inactive)	> 100 µM (inactive)	> 100 µM (inactive)	> 100 µM (inactive)
OC1(c2ccccc2)CSc2ncnn21 (stereo not given)	> 100 µM (inactive)	> 100 µM (inactive)	> 100 µM (inactive)	> 100 µM (inactive)	> 100 µM (inactive)	> 100 µM (inactive)	> 100 µM (inactive)	> 100 µM (inactive)	> 100 µM (inactive)	> 100 µM (inactive)	> 100 µM (inactive)	> 100 µM (inactive)	> 100 µM (inactive)	> 100 µM (inactive)	> 100 µM (inactive)	> 100 µM (inactive)	> 100 µM (inactive)	> 100 µM (inactive)	> 100 µM (inactive)	> 100 µM (inactive)
C(=C/c1nnnn1-c1ccccc1)/Nc1ccccc1	26.1 µM (inactive)	20.2 µM (inactive)	40.6 µM (inactive)	49.8 µM (inactive)	29.6 µM (inactive)	25.4 µM (inactive)	17.4 µM (inactive)	25.5 µM (inactive)	27.2 µM (inactive)	27.2 µM (inactive)	31.6 µM (inactive)	39 µM (inactive)	28.1 µM (inactive)	> 10 µM (inactive)	33.7 µM (inactive)	21.7 µM (inactive)	36.2 µM (inactive)	27.9 µM (inactive)	26.7 µM (inactive)	23.3 µM (inactive)
COC(=O)CN(CC(O)C(NC(C)=O)C(O)C=O)C(=O)OCc1ccccc1 (stereo not given)	> 100 µM (inactive)	> 100 µM (inactive)	> 100 µM (inactive)	> 100 µM (inactive)	> 100 µM (inactive)	> 100 µM (inactive)	> 100 µM (inactive)	> 100 µM (inactive)	> 100 µM (inactive)	> 100 µM (inactive)	> 100 µM (inactive)	> 100 µM (inactive)	> 100 µM (inactive)	> 100 µM (inactive)	> 100 µM (inactive)	> 100 µM (inactive)	> 100 µM (inactive)	> 100 µM (inactive)	> 100 µM (inactive)	> 100 µM (inactive)
CN1CCN(c2ccc3nc(C4=C(O)C(=O)c5c(nc(CCl)n5C)C4=O)[nH]c3n2)CC1	9.86 µM (inactive)	9.89 µM (inactive)	21.7 µM (inactive)	20.2 µM (inactive)	0.796 µM (active)	9.51 µM (inactive)	9.79 µM (inactive)	> 50 µM (inactive)	10.4 µM (inactive)	16.9 µM (inactive)	9.71 µM (inactive)	10.9 µM (inactive)	10.3 µM (inactive)	31.8 µM (inactive)	10.3 µM (inactive)	21.8 µM (inactive)	10.5 µM (inactive)	8.77 µM (inactive)	8.95 µM (inactive)	> 50 µM (inactive)
CC(CCC(=O)O)(c1cc(Br)c(O)c(Br)c1)c1cc(Br)c(O)c(Br)c1	65.8 µM (inactive)	41 µM (inactive)	> 100 µM (inactive)	40.6 µM (inactive)	29.9 µM (inactive)	96.2 µM (inactive)	38.4 µM (inactive)	< 0.01 µM (active)	60.3 µM (inactive)	54.7 µM (inactive)	45.1 µM (inactive)	94.8 µM (inactive)	87.1 µM (inactive)	39.1 µM (inactive)	> 100 µM (inactive)	48.3 µM (inactive)	> 100 µM (inactive)	48.9 µM (inactive)	57.9 µM (inactive)	50.4 µM (inactive)
Cc1ccc(C(=O)c2[nH]c(Nc3ccc(Cl)cc3)c(C(=S)Nc3ccccc3)c2N)cc1	6.68 µM (inactive)	14.4 µM (inactive)	5.48 µM (inactive)	4.2 µM (inactive)	15.5 µM (inactive)	4.41 µM (inactive)	8.04 µM (inactive)	8.65 µM (inactive)	11.3 µM (inactive)	6.84 µM (inactive)	5.26 µM (inactive)	10.1 µM (inactive)	3.27 µM (inactive)	2.05 µM (inactive)	1.45 µM (inactive)	12.1 µM (inactive)	14.2 µM (inactive)	3.01 µM (inactive)	5.61 µM (inactive)	5.3 µM (inactive)
COc1cc(/C=C2/CCS(=O)(=O)c3ccc(C)cc3C2=O)cc(OC)c1OC	3.79 µM (inactive)	4.12 µM (inactive)	12.1 µM (inactive)	3.23 µM (inactive)	3.6 µM (inactive)	6.04 µM (inactive)	3.52 µM (inactive)	2.85 µM (inactive)	5.5 µM (inactive)	6.73 µM (inactive)	4.54 µM (inactive)	3.58 µM (inactive)	3.66 µM (inactive)	2.32 µM (inactive)	4.85 µM (inactive)	3.62 µM (inactive)	7.35 µM (inactive)	4.14 µM (inactive)	4.1 µM (inactive)	2.59 µM (inactive)
CC(C)OC(=O)c1ccc(CCC2=CC(=O)C=CC2=O)cc1	17.4 µM (inactive)	14.9 µM (inactive)	11.5 µM (inactive)	21.8 µM (inactive)	2.17 µM (inactive)	20.3 µM (inactive)	5.25 µM (inactive)	0.697 µM (active)	5.18 µM (inactive)	12 µM (inactive)	12.2 µM (inactive)	8.93 µM (inactive)	7.89 µM (inactive)	2.56 µM (inactive)	8.85 µM (inactive)	2.1 µM (inactive)	34.8 µM (inactive)	15.6 µM (inactive)	21.6 µM (inactive)	5.45 µM (inactive)
